Here are results for 5 compounds from patent EP0546533A2, “Medical use of kininogenase” (SANWA KAGAKU KENKYUSHO CO., LTD., priority 1991, dated 1993).

Assay [1] addresses T1, kininogenase extracted and purified from human urine (original solution) (Homo sapiens, UniProt P06870).
T1 construct: from tissue; host or cells: human urine (pooled, healthy males)
Put plainly: Enzymatic dynamic constants with lower molecule synthetic substrates. Format: biochemical. The note with it: synthetic substrate. The source says: In the next place, An ability of the kininogenase for making free the kinin was periodically checked by using canine lower molecule kininogen, human lower molecule kininogen and human higher molecule kininogen in various concentration, as substrates to calculate enzymatic dynamic constants of the kininogenase.
An activity of the kininogenase to decomposition of lower molecule synthetic substrates was checked as in said Item (A) to calculate enzymatic dynamic constants of the kininogenase.

Assay [2] has as its system region occurred a cerebral infarction. The assay is described as follows: Influence to region of cerebral infarction 24 hours after glass bead injection. It is filed as in vivo, rabbit. The note with it: 100mg/kg, sustaining administration for 30 minutes. The method, then:
With use of model animals as in Pharmacological Test Example 4, an influence of a drug to region occurred a cerebral infarction at the time after lapsed 24 hours from the injection of glass bead was checked.

A further assay concerns brain in ischemic state. The assay is described as follows: Cerebral ischemia by ligation of vertebral and common carotid arteries, then release. It is filed as in vivo, rabbit. How it is done: Both of side vertebral arteries of a healthy rabbit were permanently ligated, both of the common carotid arteries were ligated for 40 minutes to make the brain in ischemic state, and then released the ligation of the common carotid arteries to observe a local blood flow and brain-wave in cerebral cortex portion and to measure concentrations of ATP and lactate in the cortex portion, at the time lapsed 15 minutes from the release of blood flow in the common carotid arteries. Following drugs were administrated in following manner. Citicholine : • Intravenously administrated for 30 minutes from 15 minutes before the ligation of common carotid arteries and at a dose of 100mg/kg. Nicardipine : • Rapidly administrated into an upper portion of small intestine at the time of 15 minutes before the ligation of common carotid arteries.

In assay [3] the test system is model animal with hypoxia. The assay is described as follows: Influence to model animal with hypoxia (5% O2 breathing). Format: in vivo, New Zealand white rabbits. How it is done: Each of female New Zealand white rabbits (body weight of about 3kg) were anethetized with pentbarbital-Na, and a tube was inserted, at once, into their trachea to cause an adjusted breathing with air through a respirator.
After intravenously injecting 0.5mg/kg of tubocurarine chloride to cause an amyotonia, the animal was transferred to a fixing device to cause an orientation of her brain to peel bellies along a median line in its vertex and to form two apertures or windows of 0.5 x 0.5cm at right front portion and 1.0 x 0.5cm at right rear portion of the skull. To the front window, a silver ball electrode was set to measure brain-wave in the cortex, and a local blood flow in the cortex and P02 in brain were measured by utilizing the rear window. Number of heat beats was measured by making trigger R-wave of the […]. These parameters were recorded by feeding the same to a polygraph, crossed thermocouple and recticorder.
After stabilized of each parameters, the air from the respirator was changed to 5% 02 and at once, drugs given later was intravenously injected to continue the experiment for 10 minutes.
• (A) Control group (n = 3) : • Administrated 3.3ml of phosphate buffer (0.05M, pH 7) for 30 minutes at rate of 0.11 ml/min. • (B) 5.0 x 10-^3 PNA units/kg Administration group (n = 3) : • Administrated 3.3ml of solution for 30 minutes at rate of 0.11 ml/min., which solution was prepared by diluting a kininogenase solution of 5.0 x 10-^2 PNA units/ml with phosphate buffer (0.05M, pH 7) by 10 folds. • (C) 2.5 x 10-^3 PNA units/kg Administration group (n = 3) : • Administrated 3.3ml of solution for 30 minutes at rate of 0.11 ml/min., which solution was prepared by diluting a kininogenase solution of 2.5 x 10-^2 PNA units/ml with phosphate buffer (0.05M, pH 7) by 10 folds. • (D) 1.5 x 10-^3 PNA units/kg Administration group (n = 3) : • Administrated 3.3ml of solution for 30 minutes at rate of 0.11 ml/min., which solution was prepared by diluting a kininogenase solution of 1.5 x 10-^2 PNA units/ml with phosphate buffer (0.05M, pH 7) by 10 folds. • (E) Citicholine (100mg/kg) administration group (n = 3) : • Administrated 3.3ml of a solution for 30 minutes at rate of 0.11 ml/min., which solution was prepared by taking 4ml of Nicholine injection solution (250mg/2ml), and diluting the same with phosphate buffer (0.05M, pH 7) to make the drug concentration to 100mg/kg. • (F) Citicholine (10mg/kg) administration group (n = 3) : • Administrated 3.3ml of a solution for 30 minutes at rate of 0.11 ml/min., which solution was prepared by taking 2ml of Nicholine injection solution (100mg/2ml), and diluting the same with phosphate buffer (0.05M, pH 7) to make the drug concentration to 10mg/kg. • (G) Nicardipine (4a g/kg) administration group (n = 3) : • Taking 10mg of Nicardipine, and diluting the same with saline to make the drug concentration to 4µ g/kg to administrate 0.1 ml/kg for 20 seconds.
A ratio of change was calculated on the number of heart beats, and an amount of change was calculated on the P02 in brain and local blood flow in brain. The brain-wave was analyzed with an analyzer (Type ATAC-450 marketed by Japan Photoelectric Co., Ltd.) to print out results. A statistic inspection or examination was carried out with use of a program of FM 11 marketed by Fujitu Co., Ltd. and judged as there is a significant difference, when P value is 0.05 or less in Student's t-test.

For assay [4], the system named is model animal with cerebral infarction. The assay is described as follows: Cerebral circulation and metabolism in cerebral infarction model (micro-glass bead injection). It is filed as in vivo, rabbit. How it is done: A micro-glass bead was injected into right hemicerebrum of an anethetized healthy rabbit to prepare a model animal with cerebral infarction. After administration of a drug, local blood flow (in cortex portion), micro-circulation in cerebral pia leptmeninges, distribution of cerebral blood flow and concentrations of P02, ATP, lactate, pyruvate, glucose and glucose-6-phosphate were measured. The measurement of biochemical substances was carried out after lapsed 60 minutes from the administration of the drug.
A change in diameter arterioles in cerebral pia leptmeninges was observed, as to blood vessels having diameters of >100, >50 to <100 and <50u m, under microscope and according to Cranial window method.

Assay [5] concerns model animal destroyed in its internal capsule. It is filed as in vivo, New Zealand white rabbit. The following applies: citicholine 100mg/kg i.v. for 30 minutes. From the text:
An influence of kininogenase to an improvement in an arousal reaction of brain wave in cerebral cortex was checked by selecting a rabbit as a test animal, electrically canterigating an internal capsule to prepare a model animal with symptoms similar to a person caused a cerebral hemorrhage, and administrating the drug, since the destruction of internal capsule gives a partial obstacle to an invigoration system in ascending rectacular region, which has been said as having a close relation with the arousal reaction of brain-wave in cortex.
A cannula was fitted in an auricle vein of a female New Zealand white rabbit to anethetize the animal by intravenously administrating pentbarbital-Na (30mg/kg). […] A concentration of PC02 in the artery blood was periodically measured by a blood gas analyzer to adjust the respirator, so that the concentration lies in a suitable level of 35 ± 5mmHg). […]
The brain-wave was monopolarly derived by the screw type electrode to record on a polygraph and also recorded on a magnetic tape by a data recorder. A cardiogram, blood pressure and number of heart beats were recorded on the polygraph through a secondary induction, a pressure transducer and a momentary heart beat recorder which subjects to cause a trigger the R wave for the cardiogram, respectively. […]
A voltage firstly appeared an arousal reaction, when a voltage for stimulating the rectacular regions shall be raised up with an interval of 5V, and a period of time during which the arousal reaction continues, when the rectacular regions are stimulated with voltage of 4V were defined as the "arousal reaction threshold value" and "arousal reaction sustaining time". The threshold value and sustaining time were visually judged from waves recorded on the charts and shown with units of voltage value (V) and time (sec.). […]

The test system of assay [6] is middle cerebral artery obstructive model animal. The assay is described as follows: Nerve dysfunction, cerebral circulation and brain wave in middle cerebral artery obstruction model. It is filed as in vivo, Japanese monkey. The following applies: citicholine 10mg/kg intravenous infusion, 24 hours after obstruction. How it is done: A tube was fitted to left-outernal carotid artery of anesthetized Japanese monkey and a silicone resin pellet [1 mm (q) ) x 5mm] was inserted into the artery through the tube to prepare a middle cerebral artery obstructive model animal.
After lapsed 5 minutes from the obstruction of left middle cerebral artery, kininogenase (2.5 x 10-^2 PNA units/kg) or citicholine (10mg/kg) as a test and control drugs was administrated through an intravenous infusion.

Where [7] appears, read: 5% O2, citicholine 100mg/kg or 10mg/kg i.v., Nicardipine 4µ g/kg.

Counter-ions that a name gives are not always drawn. Non-standard residues stand in square brackets, D forms with d. Residues, ends and D or L forms follow the SMILES beside them. *: point of attachment. pNA = O=[N+]([O-])c1ccc(N*)cc1; AMC = Cc1cc(=O)oc2cc(N*)ccc12

T1 sequence (P06870 25-262): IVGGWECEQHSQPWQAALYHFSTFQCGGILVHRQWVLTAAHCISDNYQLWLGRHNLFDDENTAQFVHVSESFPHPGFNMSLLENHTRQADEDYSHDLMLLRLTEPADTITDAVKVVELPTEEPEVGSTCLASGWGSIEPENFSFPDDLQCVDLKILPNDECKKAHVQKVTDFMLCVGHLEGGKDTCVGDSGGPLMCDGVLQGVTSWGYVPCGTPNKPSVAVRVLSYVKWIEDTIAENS

Consider `CCOC(=O)[C@H](CCCNC(=N)N)NC(=O)c1ccccc1` [BAEE, Benzoyl-L-Arg ethyl ether hydrochloride], for which, in assay [1], the Km is 252 µM and the Vmax came to 4.23e-05 min⁻¹ mg⁻¹.

Regarding `C[N+](C)(C)CCOP(=O)(O)OP(=O)([O-])OC[C@H]1O[C@@H](n2ccc(N)nc2=O)[C@H](O)[C@@H]1O` [Citicholine], in assay [2] (24 hours after glass bead injection), the “Region of infarction (%)” value was determined as 30.8 ± 19.8%. Also, the “Inhibition (%)” value in assay [2] (versus control) is listed as -35.9%. In addition, the “local blood flow in cerebral cortex portion after release of blood flow” value in the assay on brain in ischemic state (citicholine 100mg/kg i.v. for 30 minutes, Nicardipine rapidly into upper small intestine, 15 minutes before ligation) is “did not suppresses the blood flow increase”. For the same compound, the “reactivation of flattened brain-wave” value with brain in ischemic state (citicholine 100mg/kg i.v., Nicardipine into upper small intestine) is “not recognized”. Also, in assay [3] (setting [7]), the “Influence to P02 in cerebral cortex (suppression of decrease)” value is listed as “no suppressing effect” and the “Influence to local blood flow in cerebral cortex (suppression of increase)” value was “no effect”. For the same compound, in assay [3] (5% O2, citicholine at dose of 100mg/kg), the “Influence to brain-wave in cortex portion” value is “low-amplitude and quick wave”. In addition, in assay [3] (versus control group, citicholine 100mg/kg or 10mg/kg i.v. for 30 minutes, Nicardipine 4µ g/kg for 20 seconds), the “Influence to number of heart beats” value is “no significant difference”. In addition, in assay [4] (60 minutes after administration of the drug), the “suppression of ATP decrease” value is reported as “did not show the suppress of ATP decrease”. For the same compound, the “Blood flow in cerebral cortex portion at the ischemic side” value in assay [4] (Nicardipine 0.5mg/kg rapid into upper small intestine, citicholine 10mg/kg sustaining intravenous) is given as “no increase”. Also, the “frequency components of brain wave in cortex portion (quick wave components)” value in assay [5] (reported as a tendency) is “reduction of quick wave components is suppressed”. Besides, in assay [5] (versus control group), the “Sustaining period of time in the arousal reaction” value is on record as “not recognized” and the “Threshold value of arousal reaction” value is reported as “No apparent change”. Moreover, in assay [6], the “blood flow in cerebral cortex” value was “no improvement” and the brain wave activities entry was “no improvement”. The neuro symptoms entry in assay [6] (versus control group) is reported as “improvement”.

In the case of `Cc1cc(=O)oc2cc(NC(=O)[C@H](CCCNC(=N)N)NC(=O)[C@H](Cc3ccccc3)NC(=O)[C@@H]3CCCN3)ccc12` [MCA, L-Pro-L-Phe-L-Arg-4-methyl-cumaryl-7-amide] (H-Pro-Phe-Arg-{AMC}), in assay [1], the Km is 34 µM and the Vmax amounted to 2.57e-05 min⁻¹ mg⁻¹.

With `COC(=O)C1=C(C)NC(C)=C(C(=O)OCCN(C)Cc2ccccc2)C1c1cccc([N+](=O)[O-])c1` (centres unmarked) [Nicardipine], in assay [3] (setting [7]), the “Influence to local blood flow in cerebral cortex (suppression of increase)” value was “no effect”.

Consider `CC(C)C[C@H](NC(=O)[C@H](N)C(C)C)C(=O)N[C@@H](CCCNC(=N)N)C(=O)Nc1ccc([N+](=O)[O-])cc1` [PNA, H-D-Val-L-Leu-L-Arg-p-nitroanilide dihydrochloride] (H-[dV]-Leu-Arg-pNA), for which, in assay [1], the Km turned out to be 8.95 µM and the Vmax amounted to 7.8e-06 min⁻¹ mg⁻¹.

The Km is the substrate concentration at which the rate is half of its maximum.
